Legend:
Assay in all cases: biochemical
[1] = target: T1, panel of 374 wild-type kinases (Homo sapiens, UniProt O00311); settings: read-out: % Enzyme Activity (relative to DMSO controls), CDC7/DBF4
T1 construct: purchased Reaction Biology Corporation

[2] = target: T2, panel of 374 wild-type kinases (Homo sapiens, UniProt Q96NX5); settings: read-out: % Enzyme Activity (relative to DMSO controls), CAMK1g
T2 construct: purchased Reaction Biology Corporation

[3] = target: T3, panel of 374 wild-type kinases (Homo sapiens, UniProt O15264); settings: read-out: % Enzyme Activity (relative to DMSO controls), kinase P38d/MAPK13
T3 construct: purchased Reaction Biology Corporation
T3 sequence (O15264 1-365): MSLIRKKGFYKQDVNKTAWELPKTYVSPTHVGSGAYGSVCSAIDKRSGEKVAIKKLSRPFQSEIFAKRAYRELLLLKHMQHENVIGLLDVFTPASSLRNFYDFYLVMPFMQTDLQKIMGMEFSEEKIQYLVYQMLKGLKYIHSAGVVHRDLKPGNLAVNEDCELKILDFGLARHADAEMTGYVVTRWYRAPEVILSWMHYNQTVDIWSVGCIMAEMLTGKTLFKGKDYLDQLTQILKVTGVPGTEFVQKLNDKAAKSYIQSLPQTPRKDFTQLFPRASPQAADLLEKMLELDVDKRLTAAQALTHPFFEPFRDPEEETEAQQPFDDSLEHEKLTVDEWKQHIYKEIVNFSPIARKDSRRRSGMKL

[4] = target: T4, panel of 374 wild-type kinases (Homo sapiens, UniProt Q15759); settings: read-out: % Enzyme Activity (relative to DMSO controls), P38b/MAPK11
T4 construct: purchased Reaction Biology Corporation
T4 sequence (Q15759 whole entry): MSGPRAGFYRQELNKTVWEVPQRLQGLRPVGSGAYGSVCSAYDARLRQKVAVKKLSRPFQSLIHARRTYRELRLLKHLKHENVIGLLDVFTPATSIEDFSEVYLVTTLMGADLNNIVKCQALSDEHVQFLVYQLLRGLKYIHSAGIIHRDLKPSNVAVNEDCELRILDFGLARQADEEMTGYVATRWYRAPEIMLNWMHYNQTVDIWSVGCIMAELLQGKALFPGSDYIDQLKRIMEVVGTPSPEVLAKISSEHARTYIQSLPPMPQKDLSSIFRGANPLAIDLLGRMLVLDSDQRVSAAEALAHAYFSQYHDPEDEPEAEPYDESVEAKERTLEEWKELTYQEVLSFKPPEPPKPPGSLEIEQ

[5] = target: T5, panel of 374 wild-type kinases (Homo sapiens, UniProt P16591); settings: read-out: % Enzyme Activity (relative to DMSO controls), FER
T5 construct: purchased Reaction Biology Corporation
T5 sequence (P16591 whole entry): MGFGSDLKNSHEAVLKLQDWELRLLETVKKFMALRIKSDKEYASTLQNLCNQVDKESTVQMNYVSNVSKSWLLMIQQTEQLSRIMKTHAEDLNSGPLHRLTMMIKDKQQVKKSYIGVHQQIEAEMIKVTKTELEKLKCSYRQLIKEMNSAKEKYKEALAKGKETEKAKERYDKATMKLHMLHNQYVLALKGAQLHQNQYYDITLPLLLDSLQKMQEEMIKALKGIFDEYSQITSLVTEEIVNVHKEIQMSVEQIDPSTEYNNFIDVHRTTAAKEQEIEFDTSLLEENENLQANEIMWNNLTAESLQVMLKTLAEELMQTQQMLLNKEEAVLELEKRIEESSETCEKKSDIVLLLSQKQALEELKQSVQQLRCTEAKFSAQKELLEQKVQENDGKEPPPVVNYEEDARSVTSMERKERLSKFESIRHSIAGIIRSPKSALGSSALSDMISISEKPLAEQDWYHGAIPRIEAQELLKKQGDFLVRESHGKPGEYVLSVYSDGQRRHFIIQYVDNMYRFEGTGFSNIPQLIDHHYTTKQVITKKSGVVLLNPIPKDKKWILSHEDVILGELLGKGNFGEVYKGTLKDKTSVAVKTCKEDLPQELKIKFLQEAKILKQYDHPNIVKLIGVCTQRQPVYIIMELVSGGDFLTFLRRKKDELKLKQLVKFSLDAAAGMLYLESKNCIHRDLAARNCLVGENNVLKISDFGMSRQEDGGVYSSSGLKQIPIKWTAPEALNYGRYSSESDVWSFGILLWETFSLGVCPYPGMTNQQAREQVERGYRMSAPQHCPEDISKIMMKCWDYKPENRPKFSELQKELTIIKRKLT

[6] = target: T6, panel of 374 wild-type kinases (Homo sapiens, UniProt Q15303); settings: read-out: % Enzyme Activity (relative to DMSO controls), ERBB4/HER4
T6 construct: purchased Reaction Biology Corporation
T6 sequence (Q15303 26-1308): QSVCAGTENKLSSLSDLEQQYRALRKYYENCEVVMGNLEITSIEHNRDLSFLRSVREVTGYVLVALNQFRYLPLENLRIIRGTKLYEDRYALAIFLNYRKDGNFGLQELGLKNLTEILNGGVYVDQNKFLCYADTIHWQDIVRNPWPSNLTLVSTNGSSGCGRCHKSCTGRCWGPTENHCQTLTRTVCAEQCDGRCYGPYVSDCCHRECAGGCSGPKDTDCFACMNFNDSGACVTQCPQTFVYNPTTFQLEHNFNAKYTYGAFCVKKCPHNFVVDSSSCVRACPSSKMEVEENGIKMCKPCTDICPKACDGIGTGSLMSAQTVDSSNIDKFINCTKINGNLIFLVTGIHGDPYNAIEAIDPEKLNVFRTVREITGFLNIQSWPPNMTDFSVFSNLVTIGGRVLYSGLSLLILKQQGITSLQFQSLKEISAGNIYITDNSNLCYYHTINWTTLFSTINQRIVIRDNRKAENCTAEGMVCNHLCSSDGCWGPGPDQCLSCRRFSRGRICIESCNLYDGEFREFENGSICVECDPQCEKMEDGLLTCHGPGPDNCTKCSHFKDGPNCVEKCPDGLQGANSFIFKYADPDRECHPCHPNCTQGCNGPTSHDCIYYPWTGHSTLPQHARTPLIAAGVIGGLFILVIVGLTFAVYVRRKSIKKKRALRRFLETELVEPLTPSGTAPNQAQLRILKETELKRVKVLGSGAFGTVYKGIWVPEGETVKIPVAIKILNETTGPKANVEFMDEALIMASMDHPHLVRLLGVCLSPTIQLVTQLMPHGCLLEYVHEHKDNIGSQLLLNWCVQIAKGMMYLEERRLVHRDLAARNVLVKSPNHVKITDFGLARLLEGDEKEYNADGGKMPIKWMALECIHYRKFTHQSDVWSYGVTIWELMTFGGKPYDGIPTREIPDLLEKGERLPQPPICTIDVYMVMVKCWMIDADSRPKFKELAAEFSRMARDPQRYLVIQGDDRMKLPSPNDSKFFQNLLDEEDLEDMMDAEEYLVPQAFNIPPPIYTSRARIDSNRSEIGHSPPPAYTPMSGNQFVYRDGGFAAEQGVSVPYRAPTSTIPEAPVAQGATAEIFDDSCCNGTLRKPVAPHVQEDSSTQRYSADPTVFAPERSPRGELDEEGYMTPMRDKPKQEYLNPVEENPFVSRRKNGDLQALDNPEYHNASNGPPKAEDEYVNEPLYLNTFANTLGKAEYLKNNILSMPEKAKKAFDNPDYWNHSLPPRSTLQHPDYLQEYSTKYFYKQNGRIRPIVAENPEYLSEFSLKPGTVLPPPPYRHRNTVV

[7] = target: T7, panel of 374 wild-type kinases (Homo sapiens, UniProt Q15831); settings: read-out: % Enzyme Activity (relative to DMSO controls), LKB1
T7 construct: purchased Reaction Biology Corporation
T7 sequence (Q15831 1-433): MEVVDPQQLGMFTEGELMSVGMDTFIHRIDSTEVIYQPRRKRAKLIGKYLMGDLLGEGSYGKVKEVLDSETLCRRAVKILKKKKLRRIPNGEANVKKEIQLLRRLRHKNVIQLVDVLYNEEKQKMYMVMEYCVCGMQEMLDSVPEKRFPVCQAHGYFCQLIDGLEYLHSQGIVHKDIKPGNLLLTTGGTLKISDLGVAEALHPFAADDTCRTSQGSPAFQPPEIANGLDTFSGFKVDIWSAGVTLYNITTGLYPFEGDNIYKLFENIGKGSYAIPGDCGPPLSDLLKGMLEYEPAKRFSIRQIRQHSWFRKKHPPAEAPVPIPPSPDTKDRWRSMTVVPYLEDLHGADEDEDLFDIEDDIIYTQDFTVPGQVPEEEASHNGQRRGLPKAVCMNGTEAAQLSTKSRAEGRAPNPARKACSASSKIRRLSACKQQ

[8] = target: T8, panel of 374 wild-type kinases (Homo sapiens, UniProt Q9NR20); settings: read-out: % Enzyme Activity (relative to DMSO controls), DYRK4
T8 construct: purchased Reaction Biology Corporation
T8 sequence (Q9NR20 1-520): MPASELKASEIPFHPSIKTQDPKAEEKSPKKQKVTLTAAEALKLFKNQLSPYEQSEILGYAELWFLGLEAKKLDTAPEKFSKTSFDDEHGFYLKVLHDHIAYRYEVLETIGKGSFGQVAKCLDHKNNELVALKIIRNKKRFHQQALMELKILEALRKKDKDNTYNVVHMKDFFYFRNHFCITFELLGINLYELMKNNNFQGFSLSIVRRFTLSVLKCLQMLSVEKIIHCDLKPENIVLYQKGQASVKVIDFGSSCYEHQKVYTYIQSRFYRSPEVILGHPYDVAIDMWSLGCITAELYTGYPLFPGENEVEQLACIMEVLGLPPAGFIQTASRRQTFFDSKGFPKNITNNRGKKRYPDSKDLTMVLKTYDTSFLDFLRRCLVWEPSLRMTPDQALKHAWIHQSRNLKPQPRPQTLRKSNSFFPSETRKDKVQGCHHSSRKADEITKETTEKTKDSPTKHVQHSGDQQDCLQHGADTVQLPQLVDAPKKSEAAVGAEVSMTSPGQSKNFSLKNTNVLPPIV

[9] = target: T9, panel of 374 wild-type kinases (Homo sapiens, UniProt Q5VT25); settings: read-out: % Enzyme Activity (relative to DMSO controls), MRCKa/CDC42BPA
T9 construct: purchased Reaction Biology Corporation
T9 sequence (Q5VT25 whole entry): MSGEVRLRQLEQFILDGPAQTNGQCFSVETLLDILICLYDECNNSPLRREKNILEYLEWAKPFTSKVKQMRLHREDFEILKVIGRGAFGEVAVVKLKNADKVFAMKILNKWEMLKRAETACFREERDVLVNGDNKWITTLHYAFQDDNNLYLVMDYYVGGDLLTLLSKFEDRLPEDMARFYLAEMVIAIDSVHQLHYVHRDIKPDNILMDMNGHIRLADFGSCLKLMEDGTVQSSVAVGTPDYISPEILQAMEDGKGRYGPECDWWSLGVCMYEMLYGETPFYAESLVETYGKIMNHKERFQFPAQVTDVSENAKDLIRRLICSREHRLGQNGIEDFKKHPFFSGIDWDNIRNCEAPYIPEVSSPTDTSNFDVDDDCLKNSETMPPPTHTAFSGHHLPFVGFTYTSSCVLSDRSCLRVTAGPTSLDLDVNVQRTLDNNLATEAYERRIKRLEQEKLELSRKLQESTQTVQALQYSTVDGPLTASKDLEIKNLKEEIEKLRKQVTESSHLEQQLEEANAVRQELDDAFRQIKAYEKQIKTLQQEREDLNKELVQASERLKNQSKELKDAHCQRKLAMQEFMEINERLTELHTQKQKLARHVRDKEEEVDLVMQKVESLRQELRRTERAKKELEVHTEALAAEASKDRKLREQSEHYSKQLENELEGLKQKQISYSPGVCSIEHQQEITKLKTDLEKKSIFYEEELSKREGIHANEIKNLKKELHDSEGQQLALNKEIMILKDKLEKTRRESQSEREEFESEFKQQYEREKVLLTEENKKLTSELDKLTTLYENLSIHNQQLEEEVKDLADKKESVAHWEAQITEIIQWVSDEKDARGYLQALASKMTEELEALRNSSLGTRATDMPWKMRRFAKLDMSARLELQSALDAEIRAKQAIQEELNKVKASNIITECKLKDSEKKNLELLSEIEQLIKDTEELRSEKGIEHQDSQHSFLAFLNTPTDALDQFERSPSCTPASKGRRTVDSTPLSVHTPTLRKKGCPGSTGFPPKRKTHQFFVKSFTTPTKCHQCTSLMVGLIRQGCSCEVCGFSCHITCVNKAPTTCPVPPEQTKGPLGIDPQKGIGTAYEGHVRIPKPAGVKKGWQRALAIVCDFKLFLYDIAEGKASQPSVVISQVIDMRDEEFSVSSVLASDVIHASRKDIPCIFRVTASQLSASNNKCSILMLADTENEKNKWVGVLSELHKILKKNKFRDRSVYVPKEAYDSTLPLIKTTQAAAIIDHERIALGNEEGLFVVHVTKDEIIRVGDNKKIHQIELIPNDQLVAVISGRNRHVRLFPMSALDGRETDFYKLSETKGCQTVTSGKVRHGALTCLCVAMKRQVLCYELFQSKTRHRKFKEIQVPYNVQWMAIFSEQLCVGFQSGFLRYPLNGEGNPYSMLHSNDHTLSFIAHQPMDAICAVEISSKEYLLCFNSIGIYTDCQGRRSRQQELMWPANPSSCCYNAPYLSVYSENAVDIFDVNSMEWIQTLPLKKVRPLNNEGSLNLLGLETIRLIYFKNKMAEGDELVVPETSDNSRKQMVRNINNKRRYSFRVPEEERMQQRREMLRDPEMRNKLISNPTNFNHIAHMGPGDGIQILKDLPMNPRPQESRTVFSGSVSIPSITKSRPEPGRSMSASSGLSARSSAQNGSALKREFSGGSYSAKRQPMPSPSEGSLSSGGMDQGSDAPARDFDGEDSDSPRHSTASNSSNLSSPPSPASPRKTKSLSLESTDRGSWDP

T2 sequence (Q96NX5 whole entry): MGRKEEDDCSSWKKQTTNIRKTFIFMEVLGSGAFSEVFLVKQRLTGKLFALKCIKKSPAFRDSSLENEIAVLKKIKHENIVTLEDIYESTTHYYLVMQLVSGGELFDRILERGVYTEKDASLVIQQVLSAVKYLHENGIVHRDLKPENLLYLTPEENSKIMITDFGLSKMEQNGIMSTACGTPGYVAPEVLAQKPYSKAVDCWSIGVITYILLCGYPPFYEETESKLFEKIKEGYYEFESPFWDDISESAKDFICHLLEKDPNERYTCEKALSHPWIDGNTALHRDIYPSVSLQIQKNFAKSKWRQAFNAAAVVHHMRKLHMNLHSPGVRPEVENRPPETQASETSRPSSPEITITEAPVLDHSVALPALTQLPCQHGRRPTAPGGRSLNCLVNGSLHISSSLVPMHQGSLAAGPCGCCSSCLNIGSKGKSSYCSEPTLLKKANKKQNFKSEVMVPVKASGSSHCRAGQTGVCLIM

Structure (SMILES)	remaining activity at 5 µM [1] [%]	remaining activity at 5 µM [2] [%]	remaining activity at 5 µM [3] [%]	remaining activity at 5 µM [4] [%]	remaining activity at 5 µM [5] [%]	remaining activity at 5 µM [6] [%]	remaining activity at 5 µM [7] [%]	remaining activity at 5 µM [8] [%]	remaining activity at 5 µM [9] [%]	remaining activity at 10 µM ([1]; 10 uM) [%]	remaining activity at 10 µM ([2]; 10 uM) [%]	remaining activity at 10 µM ([3]; 10 uM) [%]	remaining activity at 10 µM ([4]; 10 uM) [%]	remaining activity at 10 µM ([5]; 10 uM) [%]	remaining activity at 10 µM ([6]; 10 uM) [%]	remaining activity at 10 µM ([7]; 10 uM) [%]	remaining activity at 10 µM ([8]; 10 uM) [%]	remaining activity at 10 µM ([9]; 10 uM) [%]
O=C(Nc1cnn(-c2csc(C(=O)NC3COC3)c2)c1)Nc1ccccc1Cl [Compound 17, 4-(4-(3-(2-chlorophenyl)ureido)-1H-pyrazol-1-yl)-N-(oxetan-3-yl)thiophene-2-carboxamide]	111	94.2	122	101	101	105	118	94.6	99.3	–	–	–	–	–	–	–	–	–
O=C(Nc1cnn(-c2csc(C(=O)NC3COC3)c2)c1)Nc1c(F)cccc1Cl [Compound 25, 4-(4-(3-(2-chloro-6-fluorophenyl)ureido)-1H-pyrazol-1-yl)-N-(oxetan-3-yl)thiophene-2-carboxamide]	84.3	94	98.4	91.7	89.8	102	94.7	96.2	99	–	–	–	–	–	–	–	–	–
Cc1sc(C(=O)NC2COC2)cc1-n1cc(NC(=O)Nc2c(F)cccc2Cl)cn1 [Compound 27, 4-(4-(3-(2-chloro-6-fluorophenyl)ureido)-1H-pyrazol-1-yl)-5-methyl-N-(oxetan-3-yl)thiophene-2-carboxamide]	–	–	–	–	–	–	–	–	–	107	93.1	89.2	94.3	90	95	97.6	93.7	104
